pEC50: −log10 of the molar value.
Legend:
Bmi-1 protein = assay: Sandwich ELISA Assay (Bmi-1 protein level in HT-1080 cells); assay type: cell-based
In short: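 HT-1080 cells were treated with compounds (0.5% DMSO final) for 40-48 h at 37 °C. Lysates were assayed by sandwich ELISA: mouse anti-Bmi-1 capture, rabbit anti-Bmi-1 and HRP anti-rabbit detection, TMB read at OD450 (OD570 reference). Levels were quantified against a recombinant GST-Bmi-1 standard curve (125-8000 pg/mL).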

Cc1nc2ccc(F)cn2c1-c1cc(N)nc(Nc2ccc(OC(F)F)cc2)n1 [Cpd 2, N^2-[4-(difluoromethoxy)phenyl]-6-(6-fluoro-2-methylimidazo[1,2-a]pyridin-3-yl)pyrimidine-2,4-diamine]
melting point: 189 to 190 °C
pEC50 (Bmi-1 protein): 8.00 to 9.00

Cc1nc2ccc(F)cc2n1-c1cc(N)nc(Nc2ccc(OC(F)F)cc2)n1 [Cpd 5, N^2-[4-(difluoromethoxy)phenyl]-6-(6-fluoro-2-methyl-1H-benzimidazol-1-yl)pyrimidine-2,4-diamine]
melting point: 141 to 143 °C
pEC50 (Bmi-1 protein): 7.00 to 8.00

CCc1nc2ccc(F)cc2n1-c1cc(N)nc(Nc2ccc(OC(F)F)c(F)c2)n1 [Cpd 11, N^2-[4-(difluoromethoxy)-3-fluorophenyl]-6-(2-ethyl-6-fluoro-1H-benzimidazol-1-yl)pyrimidine-2,4-diamine]
melting point: 159 to 161 °C
pEC50 (Bmi-1 protein): 7.00 to 8.00

Nc1cc(-n2c(C3CC3)nc3ccc(F)cc32)nc(Nc2ccc(OC(F)F)c(F)c2)n1 [Cpd 12, 6-(2-cyclopropyl-6-fluoro-1H-benzimidazol-1-yl)-N^2-[4-(difluoromethoxy)-3-fluorophenyl]pyrimidine-2,4-diamine]
melting point: 185 to 186 °C
pEC50 (Bmi-1 protein): 7.00 to 8.00

Nc1cc(-n2c(C(F)F)nc3ccc(F)cc32)nc(Nc2ccc(C(F)(F)F)cc2)n1 [Cpd 33, 6-[2-(difluoromethyl)-6-fluoro-1H-benzimidazol-1-yl]-N^2-[4-(trifluoromethyl)phenyl]pyrimidine-2,4-diamine]
melting point: 201 to 203 °C
pEC50 (Bmi-1 protein): 7.00 to 8.00

Nc1cc(-c2c(C(F)F)nc3ccc(F)cn23)nc(Nc2ccc(C(F)(F)F)cc2)n1 [Cpd 63, 6-[2-(difluoromethyl)-6-fluoroimidazo[1,2-a]pyridin-3-yl]-N^2-[4-(trifluoromethyl)phenyl]pyrimidine-2,4-diamine]
melting point: 242 to 245 °C
pEC50 (Bmi-1 protein): 5.52 to 7.00

Nc1cc(-n2c(C3CC3)nc3ccc(F)cc32)nc(Nc2ccc(OC(F)F)cc2)n1 [Cpd 70, 6-(2-cyclopropyl-6-fluoro-1H-benzimidazol-1-yl)-N^2-[4-(difluoromethoxy)phenyl]pyrimidine-2,4-diamine]
melting point: 177 to 179 °C
pEC50 (Bmi-1 protein): 7.00 to 8.00

CCc1nc2ccc(F)cc2n1-c1cc(N)nc(Nc2ccc(OC(F)F)cc2)n1 [Cpd 71, N^2-[4-(difluoromethoxy)phenyl]-6-(2-ethyl-6-fluoro-1H-benzimidazol-1-yl)pyrimidine-2,4-diamine]
melting point: 171 to 173 °C
pEC50 (Bmi-1 protein): 7.00 to 8.00

COCc1nc2ccccc2n1-c1cc(N)nc(Nc2ccc(C(F)(F)F)cc2)n1 [Cpd 73, 6-[2-(methoxymethyl)-1H-benzimidazol-1-yl]-N^2-[4-(trifluoromethyl)phenyl]pyrimidine-2,4-diamine]
melting point: 209 to 211 °C
pEC50 (Bmi-1 protein): 5.52 to 7.00

CC(C)c1nc2ccccc2n1-c1cc(N)nc(Nc2ccc(C(F)(F)F)cc2)n1 [Cpd 74, 6-[2-(propan-2-yl)-1H-benzimidazol-1-yl]-N^2-[4-(trifluoromethyl)phenyl]pyrimidine-2,4-diamine]
melting point: 168 to 171 °C
pEC50 (Bmi-1 protein): 5.52 to 7.00

COCc1nc2ccc(F)cc2n1-c1cc(N)nc(Nc2ccc(OC(F)F)cc2)n1 [Cpd 78, N^2-[4-(difluoromethoxy)phenyl]-6-[6-fluoro-2-(methoxymethyl)-1H-benzimidazol-1-yl]pyrimidine-2,4-diamine]
melting point: 120 to 122 °C
pEC50 (Bmi-1 protein): 7.00 to 8.00

CC(C)c1nc2ccc(F)cc2n1-c1cc(N)nc(Nc2ccc(OC(F)F)cc2)n1 [Cpd 79, N^2-[4-(difluoromethoxy)phenyl]-6-[6-fluoro-2-(propan-2-yl)-1H-benzimidazol-1-yl]pyrimidine-2,4-diamine]
melting point: 167 to 169 °C
pEC50 (Bmi-1 protein): 7.00 to 8.00

Nc1cc(-n2c(C3CC3)nc3cc(F)ccc32)nc(Nc2ccc(OC(F)F)cc2)n1 [Cpd 80, 6-(2-cyclopropyl-5-fluoro-1H-benzimidazol-1-yl)-N^2-[4-(difluoromethoxy)phenyl]pyrimidine-2,4-diamine]
melting point: 136 to 138 °C
pEC50 (Bmi-1 protein): 7.00 to 8.00

CC(C)c1nc2cc(F)ccc2n1-c1cc(N)nc(Nc2ccc(OC(F)F)cc2)n1 [Cpd 81, N^2-[4-(difluoromethoxy)phenyl]-6-[5-fluoro-2-(propan-2-yl)-1H-benzimidazol-1-yl]pyrimidine-2,4-diamine]
melting point: 118 to 120 °C
pEC50 (Bmi-1 protein): 5.52 to 7.00

Nc1cc(-n2c(C(F)F)nc3ccccc32)nc(Nc2ccc(OC(F)F)cc2)n1 [Cpd 88, N^2-[4-(difluoromethoxy)phenyl]-6-[2-(difluoromethyl)-1H-benzimidazol-1-yl]pyrimidine-2,4-diamine]
melting point: 114 to 115 °C
pEC50 (Bmi-1 protein): 8.00 to 9.00

CC(C)c1nc2ccccc2n1-c1cc(N)nc(Nc2ccc(OC(F)F)cc2)n1 [Cpd 89, N^2-[4-(difluoromethoxy)phenyl]-6-[2-(propan-2-yl)-1H-benzimidazol-1-yl]pyrimidine-2,4-diamine]
melting point: 184 to 187 °C
pEC50 (Bmi-1 protein): 7.00 to 8.00

Nc1cc(-n2c(C3CC3)nc3cc(F)ccc32)nc(Nc2ccc(C(F)(F)F)cc2)n1 [Cpd 103, 6-(2-cyclopropyl-5-fluoro-1H-benzimidazol-1-yl)-N^2-[4-(trifluoromethyl)phenyl]pyrimidine-2,4-diamine]
melting point: 237 to 238 °C
pEC50 (Bmi-1 protein): 7.00 to 8.00

Cc1nc2cc(F)ccc2n1-c1cc(N)nc(Nc2ccc(OC(F)F)c(F)c2)n1 [Cpd 105, N^2-[4-(difluoromethoxy)-3-fluorophenyl]-6-(5-fluoro-2-methyl-1H-benzimidazol-1-yl)pyrimidine-2,4-diamine]
melting point: 172 to 173 °C
pEC50 (Bmi-1 protein): 7.00 to 8.00

COc1ccn2nc(C3CC3)c(-c3cc(N)nc(Nc4ccc(C(F)(F)F)cc4)n3)c2c1 [Cpd 106, 6-(2-cyclopropyl-5-methoxypyrazolo[1,5-a]pyridin-3-yl)-N^2-[4-(trifluoromethyl)phenyl]pyrimidine-2,4-diamine]
melting point: 172 to 174 °C
pEC50 (Bmi-1 protein): 5.52 to 7.00

CCc1nn2ccc(F)cc2c1-c1cc(N)nc(Nc2ccc(C(F)(F)F)cc2)n1 [Cpd 111, 6-(2-ethyl-5-fluoropyrazolo[1,5-a]pyridin-3-yl)-N^2-[4-(trifluoromethyl)phenyl]pyrimidine-2,4-diamine]
melting point: 153 to 157 °C
pEC50 (Bmi-1 protein): 7.00 to 8.00

Cc1nn2c(=O)n(C)c(C)cc2c1-c1cc(N)nc(Nc2ccc(C(F)(F)F)cc2)n1 [Cpd 117, 3-(6-amino-2-{[4-(trifluoromethyl)phenyl]amino}pyrimidin-4-yl)-2,5,6-trimethylpyrazolo[1,5-c]pyrimidin-7(6H)-one]
melting point: 270 to 273 °C
pEC50 (Bmi-1 protein): 5.52 to 7.00

Nc1cc(-c2c(C3CC3)nn3ccccc23)nc(Nc2ccc(C(F)(F)F)cc2)n1 [Cpd 126, 6-(2-cyclopropylpyrazolo[1,5-a]pyridin-3-yl)-N^2-[4-(trifluoromethyl)phenyl]pyrimidine-2,4-diamine]
melting point: 181 to 183 °C
pEC50 (Bmi-1 protein): 5.52 to 7.00

COc1ccc(Nc2nc(N)cc(-n3c(C)nc4ccccc43)n2)cc1 [Cpd 129, N^2-(4-methoxyphenyl)-6-(2-methyl-1H-benzimidazol-1-yl)pyrimidine-2,4-diamine]
melting point: 149 to 150 °C
pEC50 (Bmi-1 protein): ≥ 9.00

Cc1ccc(Nc2nc(N)cc(-n3c(C)nc4cc(C)c(C)cc43)n2)cc1 [Cpd 183, N^2-(4-methylphenyl)-6-(2,5,6-trimethyl-1H-benzimidazol-1-yl)pyrimidine-2,4-diamine]
pEC50 (Bmi-1 protein): 7.00 to 8.00

Cc1ccc(Nc2nc(N)cc(-c3c(C)noc3C)n2)cc1 [Cpd 190, 6-(3,5-dimethyl-1,2-oxazol-4-yl)-N^2-(4-methylphenyl)pyrimidine-2,4-diamine]
pEC50 (Bmi-1 protein): 5.52 to 7.00

Cc1nc2cc(F)ccc2n1-c1cc(N)nc(Nc2ccc(Cl)cc2)n1 [Cpd 191, N^2-(4-chlorophenyl)-6-(5-fluoro-2-methyl-1H-benzimidazol-1-yl)pyrimidine-2,4-diamine]
pEC50 (Bmi-1 protein): 5.52 to 7.00

Cc1nc2cc(F)ccc2n1-c1cc(N)nc(Nc2ccc(Cl)c(F)c2)n1 [Cpd 192, N^2-(4-chloro-3-fluorophenyl)-6-(5-fluoro-2-methyl-1H-benzimidazol-1-yl)pyrimidine-2,4-diamine]
pEC50 (Bmi-1 protein): 5.52 to 7.00

Cc1nc2cc(F)c(F)cc2n1-c1cc(N)nc(Nc2cccc(Cl)c2)n1 [Cpd 193, N^2-(3-chlorophenyl)-6-(5,6-difluoro-2-methyl-1H-benzimidazol-1-yl)pyrimidine-2,4-diamine]
pEC50 (Bmi-1 protein): 5.52 to 7.00

Cc1nc2cc(F)c(F)cc2n1-c1cc(N)nc(Nc2ccc([N+](=O)[O-])cc2)n1 [Cpd 194, 6-(5,6-difluoro-2-methyl-1H-benzimidazol-1-yl)-N^2-(4-nitrophenyl)pyrimidine-2,4-diamine]
pEC50 (Bmi-1 protein): 5.52 to 7.00

Cc1cccc(Nc2nc(N)cc(-n3c(C)nc4cc(F)c(F)cc43)n2)c1 [Cpd 195, 6-(5,6-difluoro-2-methyl-1H-benzimidazol-1-yl)-N^2-(3-methylphenyl)pyrimidine-2,4-diamine]
pEC50 (Bmi-1 protein): 5.52 to 7.00

COc1cccc(Nc2nc(N)cc(-n3c(C)nc4cc(F)c(F)cc43)n2)c1 [Cpd 196, 6-(5,6-difluoro-2-methyl-1H-benzimidazol-1-yl)-N^2-(3-methoxyphenyl)pyrimidine-2,4-diamine]
pEC50 (Bmi-1 protein): 5.52 to 7.00

COc1ccc(Nc2nc(N)c(Cl)c(-n3c(C)nc4ccccc43)n2)cc1 [Cpd 197, 5-chloro-N^2-(4-methoxyphenyl)-6-(2-methyl-1H-benzimidazol-1-yl)pyrimidine-2,4-diamine]
pEC50 (Bmi-1 protein): 5.52 to 7.00

Cc1noc(C)c1-c1cc(N)nc(Nc2ccc(Cl)cc2)n1 [Cpd 198, N^2-(4-chlorophenyl)-6-(3,5-dimethylisoxazol-4-yl)pyrimidine-2,4-diamine]
pEC50 (Bmi-1 protein): 5.52 to 7.00

Cc1nc2cc(F)ccc2n1-c1cc(N)[n+]([O-])c(Nc2ccc(C(F)(F)F)cc2)n1 [Cpd 199, 6-(5-fluoro-2-methyl-1H-benzimidazol-1-yl)-N^2-[4-(trifluoromethyl)phenyl]pyrimidine-2,4-diamine 3-oxide]
pEC50 (Bmi-1 protein): 5.52 to 7.00

Source: US10370371B2, “Substituted pyrimidine Bmi-1 inhibitors” (PTC Therapeutics, Inc., priority 2013, dated 2019)
